Data: patent publication US20250051346A1 (priority 2021, published 2025)

How the values were obtained:
5HT2A sensor [1] = format: cell-based
5HT2A sensor [2] = format: cell-based; remark: listed apart in the source
5-HT2A [3] = target: T1, 5-HT2A (Homo sapiens, UniProt P28223); experiment: Serotonin 5-HT2A in vitro cellular IPOne agonism assay; format: cell-based; parameters: host or cells: CHO-K1; conditions: CHO-K1 cells, 60 min
Experimental: (§1) Serotonin 5-HT2A In Vitro Cellular IPOne Agonism Assay. The 5-HT2A IPOne HTRF assay was performed at Epics Therapeutics S.A. (Belgium, FAST-0505I) using conventional methods. Briefly, CHO-K1 cells expressing human recombinant 5-HT2A receptor grown to mid-log phase in culture media without antibiotics were detached with PBS-EDTA, centrifuged, and resuspended in medium without antibiotics buffer. 20,000 cells are distributed in a 96 well plate and incubated overnight at 37° C. with 5% CO2.
For agonist testing, the medium was removed and 20 μl of assay buffer plus 20 μl of test compound or reference agonist were added in each well. The plate was incubated for 60 min. at 37° C. with 5% CO2.
After addition of the lysis buffer containing IP1-d2 and anti-IP1 cryptate detection reagents, plates were incubated 1-hour at room temperature, and fluorescence ratios were measured according to the manufacturer specification, with the HTRF kit.

5-HT2A [4] = target: T1, 5-HT2A; experiment: Serotonin 5-HT2A in vitro radioligand binding competition assay; parameters: purchased Epics Therapeutics S.A. (Belgium), contract assay FAST-0505B; host or cells: membrane extracts; conditions: [3H]-DOI radiotracer, membrane extracts, read-out: 5HT2A R[…] ACTIVITY
Experimental: Serotonin 5-HT2A In Vitro Radioligand Binding Competition Assay. The 5-HT2A radioligand binding competition assay was performed at Epics Therapeutics S.A. (Belgium, FAST-0505B) using conventional methods. Briefly, competition binding was performed in duplicate in the wells of a 96 well plate (Master Block, Greiner, 786201) containing binding buffer (optimized for each receptor), membrane extracts (amount of protein/well optimized for each receptor), radiotracer [^3H]-DOI (final concentration optimized for each receptor) and test compound. Nonspecific binding was determined by co-incubation with 200-fold excess of cold competitor. The samples were incubated in a final volume of 0.1 ml at a temperature and for a duration optimized for each receptor and then filtered over filter plates. Filters were washed six times with 0.5 ml of ice-cold washing buffer (optimized for each receptor) and 50 μl of Microscint 20 (Packard) were added in each well. The plates were incubated 15 min on an orbital shaker and then counted with a TopCount™ for 1 min/well.

5-HT2A [5] = target: T1, 5-HT2A; experiment: Serotonin 5-HT2A in vitro cellular IPOne antagonism assay; format: cell-based; parameters: host or cells: CHO-K1; conditions: CHO-K1 cells; reference agonist a-Me-5HT
Experimental: as §1, with “Antagonism” for “Agonism”, “FAST-0505I) in antagonism mode” for “FAST-0505I)”
For antagonist testing, a reference agonist a-Me-5HT was added and fluorescence signal monitored for several minutes, followed by addition of 20 μl of assay buffer plus 20 μl of test compound or reference antagonist ketanserin, in each well. The plate was incubated for 60 min. at 37° C. with 5% CO2.
After addition of the lysis buffer containing IP1-d2 and anti-IP1 cryptate detection reagents, plates were incubated 1-hour at room temperature, and fluorescence ratios are measured according to the manufacturer specification, with the HTRF kit.

T1 sequence (P28223 whole entry): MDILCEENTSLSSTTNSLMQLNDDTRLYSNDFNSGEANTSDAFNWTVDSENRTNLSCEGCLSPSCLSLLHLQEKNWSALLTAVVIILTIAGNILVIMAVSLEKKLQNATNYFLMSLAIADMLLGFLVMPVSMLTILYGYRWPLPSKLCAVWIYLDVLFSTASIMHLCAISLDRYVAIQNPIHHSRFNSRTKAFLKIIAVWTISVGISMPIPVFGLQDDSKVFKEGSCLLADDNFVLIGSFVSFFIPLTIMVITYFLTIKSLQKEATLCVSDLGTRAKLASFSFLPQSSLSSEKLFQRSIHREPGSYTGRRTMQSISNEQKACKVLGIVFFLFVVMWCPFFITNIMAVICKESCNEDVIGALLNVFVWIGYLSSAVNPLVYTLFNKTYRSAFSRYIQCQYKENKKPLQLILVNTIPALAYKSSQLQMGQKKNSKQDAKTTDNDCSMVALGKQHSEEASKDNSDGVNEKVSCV

| Compound | IC50 (5-HT2A [5]) | EC50 (5-HT2A [3]; benzothiophenes) | IC50 (5-HT2A [4]; benzothiophenes) | further results |
| --- | --- | --- | --- | --- |
| CCN(CC)C(=O)[C@@H]1C=C2c3cccc4[nH]c(Br)c(c34)C[C@H]2N(C)C1 [BOL148] | – | – | – | activation of the 5HT2A sensor assay (5HT2A sensor [1]): do not activate the 5HT2A sensor assay in agonist mode; competition with 5-HT at 5HT2A in the sensor assay (5HT2A sensor [2]): can compete with 5HT binding to 5HT2A |
| COc1cccc2oc3c(c12)CN(C1CCC1)CCC3 [Compound 14, 2-cyclobutyl-10-methoxy-2,3,4,5-tetrahydro-1H-benzofuro[3,2-c]azepine] | 101 to 1000 nM | – | – | EC50 (5-HT2A [3]; benzofurans): 1000 to 10000 nM; IC50 (5-HT2A [4]; benzofurans): 1000 to 10000 nM |
| CN1CCc2oc3cc(F)ccc3c2CC1 [Compound 23, 8-fluoro-3-methyl-2,3,4,5-tetrahydro-1H-benzofuro[2,3-d]azepine] | 101 to 1000 nM | – | – | EC50 (5-HT2A [3]; benzofurans): 101 to 1000 nM; IC50 (5-HT2A [4]; benzofurans): 101 to 1000 nM |
| c1ccc2c3c(oc2c1)CCN(C1CCC1)CC3 [Compound 28, 3-cyclobutyl-2,3,4,5-tetrahydro-1H-benzofuro[2,3-d]azepine] | > 10000 nM | – | – | EC50 (5-HT2A [3]; benzofurans): > 10000 nM; IC50 (5-HT2A [4]; benzofurans): 1000 to 10000 nM |
| CN1CCc2oc3ccccc3c2CC1 [Compound 30, 3-methyl-2,3,4,5-tetrahydro-1H-benzofuro[2,3-d]azepine] | 101 to 1000 nM | – | – | EC50 (5-HT2A [3]; benzofurans): > 10000 nM; IC50 (5-HT2A [4]; benzofurans): 101 to 1000 nM |
| Fc1ccc2c3c(sc2c1)CCN(C1CCC1)CC3 [Compound 32, 3-cyclobutyl-8-fluoro-2,3,4,5-tetrahydro-1H-benzo[4,5]thieno[2,3-d]azepine] | 10 to 100 nM | > 10000 nM | 10 to 100 nM | – |
| CN1CCc2sc3cc(F)ccc3c2CC1 [Compound 33, 8-fluoro-3-methyl-2,3,4,5-tetrahydro-1H-benzo[4,5]thieno[2,3-d]azepine] | 10 to 100 nM | 10 to 100 nM | 10 to 100 nM | – |
| COc1ccc2c3c(sc2c1)CCN(C)CC3 [Compound 34, 8-methoxy-3-methyl-2,3,4,5-tetrahydro-1H-benzo[4,5]thieno[2,3-d]azepine] | 101 to 1000 nM | 1000 to 10000 nM | 1000 to 10000 nM | – |
| c1ccc(COc2cccc3oc4c(c23)CCNCC4)cc1 [Compound 47, 10-(benzyloxy)-2,3,4,5-tetrahydro-1H-benzofuro[2,3-d]azepine] | 101 to 1000 nM | – | – | EC50 (5-HT2A [3]; benzofurans): 1000 to 10000 nM; IC50 (5-HT2A [4]; benzofurans): 101 to 1000 nM |
| CN1CCCc2oc3cc(OC(F)(F)F)ccc3c2C1 [Compound 53, 2-methyl-8-(trifluoromethoxy)-2,3,4,5-tetrahydro-1H-benzofuro[3,2-c]azepine] | – | – | – | EC50 (5-HT2A [3]; benzofurans): > 10000 nM; IC50 (5-HT2A [4]; benzofurans): > 10000 nM |
| CN1CCCc2oc3cc(OCc4ccccc4)ccc3c2C1 [Compound 54, 8-(benzyloxy)-2-methyl-2,3,4,5-tetrahydro-1H-benzofuro[3,2-c]azepine] | – | – | – | EC50 (5-HT2A [3]; benzofurans): > 10000 nM; IC50 (5-HT2A [4]; benzofurans): 101 to 1000 nM |
| CN1CCCc2oc3cccc(OCc4ccccc4)c3c2C1 [Compound 55, 10-(benzyloxy)-2-methyl-2,3,4,5-tetrahydro-1H-benzofuro[3,2-c]azepine] | – | – | – | EC50 (5-HT2A [3]; benzofurans): > 10000 nM; IC50 (5-HT2A [4]; benzofurans): 10 to 100 nM |
| c1ccc2c3c(sc2c1)CCNCC3 [Compound 65, 2,3,4,5-tetrahydro-1H-benzo[4,5]thieno[2,3-d]azepine] | – | 101 to 1000 nM | 10 to 100 nM | – |
| FC(F)(F)Oc1ccc2c3c(sc2c1)CCNCC3 [Compound 66, 8-(trifluoromethoxy)-2,3,4,5-tetrahydro-1H-benzo[4,5]thieno[2,3-d]azepine] | – | 101 to 1000 nM | 101 to 1000 nM | – |
| FC(F)(F)Oc1cccc2sc3c(c12)CCNCC3 [Compound 67, 10-(trifluoromethoxy)-2,3,4,5-tetrahydro-1H-benzo[4,5]thieno[2,3-d]azepine] | – | 10 to 100 nM | 10 to 100 nM | – |
| FC(F)(F)Oc1cccc2sc3c(c12)CCN(C1CCC1)CC3 [Compound 68, 3-cyclobutyl-10-(trifluoromethoxy)-2,3,4,5-tetrahydro-1H-benzo[4,5]thieno[2,3-d]azepine] | – | 1000 to 10000 nM | 1000 to 10000 nM | – |
| FC(F)(F)CN1CCc2sc3ccccc3c2CC1 [Compound 69, 3-(2,2,2-trifluoroethyl)-2,3,4,5-tetrahydro-1H-benzo[4,5]thieno[2,3-d]azepine] | – | > 10000 nM | > 10000 nM | – |

| Compound | IC50 (5-HT2A [5]) | EC50 (5-HT2A [3]; benzothiophenes) | IC50 (5-HT2A [4]; benzothiophenes) | further results |
| --- | --- | --- | --- | --- |
| COc1ccc2c3c(sc2c1)CCN(CC(F)(F)F)CC3 [Compound 70, 8-methoxy-3-(2,2,2-trifluoroethyl)-2,3,4,5-tetrahydro-1H-benzo[4,5]thieno[2,3-d]azepine] | – | > 10000 nM | > 10000 nM | – |
| Fc1ccc2c3c(sc2c1)CCN(CC(F)(F)F)CC3 [Compound 71, 8-fluoro-3-(2,2,2-trifluoroethyl)-2,3,4,5-tetrahydro-1H-benzo[4,5]thieno[2,3-d]azepine] | – | > 10000 nM | > 10000 nM | – |
| CN1CCc2sc3ccccc3c2CC1 [Compound 72, 3-methyl-2,3,4,5-tetrahydro-1H-benzo[4,5]thieno[2,3-d]azepine] | 10 to 100 nM | 101 to 1000 nM | 10 to 100 nM | – |
| c1ccc2c3c(sc2c1)CCN(C1CCC1)CC3 [Compound 73, 3-cyclobutyl-2,3,4,5-tetrahydro-1H-benzo[4,5]thieno[2,3-d]azepine] | 101 to 1000 nM | > 10000 nM | 101 to 1000 nM | – |
| COc1ccc2c3c(sc2c1)CCN(C1CCC1)CC3 [Compound 74, 3-cyclobutyl-8-methoxy-2,3,4,5-tetrahydro-1H-benzo[4,5]thieno[2,3-d]azepine] | – | > 10000 nM | > 10000 nM | – |
| CN1CCc2sc3cc(OC(F)(F)F)ccc3c2CC1 [Compound 75, 3-methyl-8-(trifluoromethoxy)-2,3,4,5-tetrahydro-1H-benzo[4,5]thieno[2,3-d]azepine] | 101 to 1000 nM | > 10000 nM | 1000 to 10000 nM | – |
| FC(F)(F)Oc1ccc2c3c(sc2c1)CCN(C1CCC1)CC3 [Compound 76, 3-cyclobutyl-8-(trifluoromethoxy)-2,3,4,5-tetrahydro-1H-benzo[4,5]thieno[2,3-d]azepine] | – | > 10000 nM | 1000 to 10000 nM | – |
| c1ccc(COc2ccc3c4c(sc3c2)CCNCC4)cc1 [Compound 77, 8-(benzyloxy)-2,3,4,5-tetrahydro-1H-benzo[4,5]thieno[2,3-d]azepine] | – | > 10000 nM | 1000 to 10000 nM | – |
| c1ccc(COc2ccc3c4c(sc3c2)CCN(C2CCC2)CC4)cc1 [Compound 78, 8-(benzyloxy)-3-cyclobutyl-2,3,4,5-tetrahydro-1H-benzo[4,5]thieno[2,3-d]azepine] | – | > 10000 nM | 1000 to 10000 nM | – |
| CN1CCc2sc3cc(OCc4ccccc4)ccc3c2CC1 [Compound 79, 8-(benzyloxy)-3-methyl-2,3,4,5-tetrahydro-1H-benzo[4,5]thieno[2,3-d]azepine] | – | > 10000 nM | 101 to 1000 nM | – |
| Oc1ccc2c3c(sc2c1)CCNCC3 [Compound 80, 2,3,4,5-tetrahydro-1H-benzo[4,5]thieno[2,3-d]azepin-8-ol] | – | 101 to 1000 nM | 10 to 100 nM | – |
| CN(C)CCc1c[nH]c2ccccc12 [DMT, N,N-dimethyltryptamine] | – | – | – | activation of the 5HT2A sensor assay (5HT2A sensor [1]): activate the 5HT2A sensor assay in agonist mode |
| CCN(CC)C(=O)[C@@H]1C=C2c3cccc4[nH]cc(c34)C[C@H]2N(C)C1 [LSD] | – | – | – | activation of the 5HT2A sensor assay (5HT2A sensor [1]): activate the 5HT2A sensor assay in agonist mode |
| DOI | – | – | – | activation of the 5HT2A sensor assay (5HT2A sensor [1]): activate the 5HT2A sensor assay in agonist mode |
| L-MDMA | – | – | – | activation of the 5HT2A sensor assay (5HT2A sensor [1]): do not activate the 5HT2A sensor assay in agonist mode |
| R-MDMA | – | – | – | activation of the 5HT2A sensor assay (5HT2A sensor [1]): do not activate the 5HT2A sensor assay in agonist mode |
